# Source: paper PMC6681697, “One-Step ^18F-Labeling and Preclinical Evaluation of Prostate-Specific Membrane Antigen Trifluoroborate Probes for Cancer Imaging” (Journal of Nuclear Medicine, 2019)
# Legend:
# [1] = biological target: T1, PSMA (Homo sapiens, UniProt Q04609); assay: In vitro competition binding assay on LNCaP cells with ^18F-DCFPyL as radioligand
# T1 construct: because it expresses PSMA endogenously and is commonly used to evaluate PSMA-targeting radiotracers; endogenous in cells; host or cells: LNCaP cells
# T1 sequence (Q04609 whole entry): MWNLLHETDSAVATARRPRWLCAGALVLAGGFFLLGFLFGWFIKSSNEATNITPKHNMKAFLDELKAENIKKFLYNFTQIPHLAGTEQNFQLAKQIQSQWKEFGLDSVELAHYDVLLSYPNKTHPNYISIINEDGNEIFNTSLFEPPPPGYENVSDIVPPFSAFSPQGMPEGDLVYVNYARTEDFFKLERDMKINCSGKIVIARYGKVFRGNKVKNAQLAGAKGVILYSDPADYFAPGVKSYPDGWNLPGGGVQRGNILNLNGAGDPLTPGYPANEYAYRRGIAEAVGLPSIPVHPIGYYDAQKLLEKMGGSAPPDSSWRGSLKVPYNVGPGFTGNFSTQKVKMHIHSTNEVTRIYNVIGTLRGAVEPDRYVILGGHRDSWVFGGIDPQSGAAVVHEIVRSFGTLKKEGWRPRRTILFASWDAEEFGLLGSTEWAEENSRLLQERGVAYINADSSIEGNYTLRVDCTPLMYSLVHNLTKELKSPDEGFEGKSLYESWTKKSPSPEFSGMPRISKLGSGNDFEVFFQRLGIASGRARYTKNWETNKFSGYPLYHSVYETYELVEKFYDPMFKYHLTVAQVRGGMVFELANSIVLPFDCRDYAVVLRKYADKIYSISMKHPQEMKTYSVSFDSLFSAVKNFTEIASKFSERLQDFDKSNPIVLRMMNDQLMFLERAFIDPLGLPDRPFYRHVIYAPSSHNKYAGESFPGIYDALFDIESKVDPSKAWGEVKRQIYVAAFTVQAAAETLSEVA
# Experimental: LNCaP cells were plated onto a 24-well poly-D-lysine coated plate for 48 h (400,000/well). […] Nonspecific binding was determined in the presence of 10 μM unlabeled DCFPyL. The assay mixtures were incubated for 1 h at 37°C with gentle agitation followed by 2 washes with cold HEPES buffered saline. A trypsin solution (0.25%, 400 μL) was then added to each well to harvest the cells. Radioactivity was measured by γ-counting, and Ki values were calculated using the “1 site—fit Ki” built-in model in Prism 7 (GraphPad).
# [2] = Distribution coefficient (LogD7.4), shake flask method; type: physicochemical; details: n-octanol / phosphate buffer 0.1 M pH 7.4; n = 3
# Experimental: LogD7.4 values were measured using the shake flask method. Briefly, an aliquot of ^18F-labeled tracer was added to a vial containing 2.5 mL of n-octanol and 2.5 mL of phosphate buffer (0.1 M, pH 7.4). The mixture was vortexed for 2 min and then centrifuged at 3,000g for 10 min. A sample of the n-octanol (0.1 mL) and buffer (0.1 mL) layers was counted using a γ-counter. Values of LogD7.4 were calculated using the following equation: LogD7.4 = log10 [(counts in n-octanol phase)/(counts in buffer phase)].
# [3] = test system: LNCaP xenografts; assay: Ex vivo biodistribution and blocking studies in mice bearing LNCaP xenografts; details: for tumor uptake compared with ^18F-DCFPyL: 1-way ANOVA, Dunnett test; for tumor uptake: LNCaP tumor
# Experimental: Imaging and biodistribution experiments were performed using NODSCID IL2RγKO male mice. All experiments were conducted according to the guidelines established by the Canadian Council on Animal Care and approved by the Animal Ethics Committee of the University of British Columbia. Mice were anesthetized by inhalation with 2% isoflurane in oxygen and implanted subcutaneously with 1 × 10^7 LNCaP cells behind the left shoulder. The mice were imaged or used in biodistribution studies once the tumor reached 5–8 mm in diameter (5–6 wk).
# For biodistribution and blocking studies, the mice were injected with 1–3 MBq of radiotracer. At 60 min, the mice were anesthetized with 2% isoflurane inhalation and euthanized by CO2 inhalation. Blood was withdrawn by cardiac puncture, and the organs and tissues of interest were collected, weighed, and counted using an automatic γ-counter (PerkinElmer). Uptake values were expressed as the percentage of the injected dose per gram of tissue (%ID/g).
# A standard 1-way ANOVA was performed to determine whether statistically significant differences in tumor uptake occurred between radiotracers. Each radiotracer was compared with ^18F-DCFPyL using the Dunnett test (a many-to-one t test comparison). This analysis was also performed for kidney and blood activity and for tumor-to-blood and tumor-to-muscle ratios. Reported P values were adjusted for multiple comparisons. The analysis was performed using Prism 8 (GraphPad). […]
# Statistical analyses were performed using GradPad prism 7. Multiple t tests were performed to compare biodistribution in unblocked and blocked mice, multiple comparisons were corrected using the Holm-Sidak method. The difference was considered statistically significant when p value was < 0.05.
# Supplemental Table 1 – Complete biodistribution study for compounds [18F]1–3 […]
# Tissue 1h 1h blocked 1h 1h blocked 1h 1h blocked
# (%ID/g) n = 8 n = 4 n = 6 n = 4 n = 8 n = 5 […]
# (1 picture or pasted object on this page, not shown here)
# [4] = 1 h blocked (coinjection of DCFPyL 0.5 mg)
compound,measurement,setting,value
C[N+](C)(Cc1cn(CC(=O)NC[C@H]2CC[C@H](C(=O)N[C@@H](Cc3ccc4ccccc4c3)C(=O)NCCCC[C@H](NC(=O)N[C@@H](CCC(=O)O)C(=O)O)C(=O)O)CC2)nn1)C[B-](F)(F)F [^18F-5],Ki,[1],1.14 ± 0.26 nM
same,logD at 2 min,[2],-3.52 ± 0.21
same,intestinal activity compared with ^18F-DCFPyL,[3]; 1 h after injection,significantly higher intestinal activity than ^18F-DCFPyL
same,T/B (tumor-to-blood ratio),"[3]; 1 h after injection, unblocked",17.12 ± 5.40
same,T/K (tumor-to-kidney ratio),"[3]; 1 h after injection, unblocked",0.21 ± 0.08
same,T/M (tumor-to-muscle ratio),"[3]; 1 h after injection, unblocked",49.67 ± 28.45
same,adrenal uptake,"[3]; 1 h after injection, unblocked",2.89 ± 1.94 %ID/g
same,blood uptake,"[3]; 1 h after injection, unblocked",0.89 ± 0.42 %ID/g
same,bone uptake,"[3]; 1 h after injection, unblocked",0.34 ± 0.14 %ID/g
same,brain uptake,"[3]; 1 h after injection, unblocked",0.04 ± 0.01 %ID/g
same,fat uptake,"[3]; 1 h after injection, unblocked",0.83 ± 0.33 %ID/g
same,heart uptake,"[3]; 1 h after injection, unblocked",0.31 ± 0.11 %ID/g
same,intestine uptake,"[3]; 1 h after injection, unblocked",12.96 ± 4.61 %ID/g
same,kidney uptake,"[3]; 1 h after injection, unblocked",73.86 ± 35.21 %ID/g
same,liver uptake,"[3]; 1 h after injection, unblocked",1.14 ± 0.48 %ID/g
same,lung uptake,"[3]; 1 h after injection, unblocked",1.21 ± 0.48 %ID/g
same,muscle uptake,"[3]; 1 h after injection, unblocked",0.36 ± 0.18 %ID/g
same,pancreas uptake,"[3]; 1 h after injection, unblocked",0.30 ± 0.17 %ID/g
same,spleen uptake,"[3]; 1 h after injection, unblocked",3.21 ± 1.73 %ID/g
same,stomach uptake,"[3]; 1 h after injection, unblocked",0.37 ± 0.45 %ID/g
same,testes uptake,"[3]; 1 h after injection, unblocked",0.74 ± 0.55 %ID/g
same,tumor uptake compared with ^18F-DCFPyL,[3]; 1 h after injection,No statistically significant differences
same,T/B (tumor-to-blood ratio),[3]; [4],0.95 ± 0.10
same,T/K (tumor-to-kidney ratio),[3]; [4],0.41 ± 0.09
same,T/M (tumor-to-muscle ratio),[3]; [4],2.85 ± 0.70
same,adrenal uptake,[3]; [4],0.34 ± 0.09 %ID/g
same,blood uptake,[3]; [4],0.44 ± 0.02 %ID/g
same,bone uptake,[3]; [4],0.17 ± 0.03 %ID/g
same,brain uptake,[3]; [4],0.02 ± 0.00 %ID/g
same,fat uptake,[3]; [4],0.16 ± 0.06 %ID/g
same,heart uptake,[3]; [4],0.15 ± 0.00 %ID/g
same,intestine uptake,[3]; [4],12.36 ± 0.55 %ID/g
same,kidney uptake,[3]; [4],1.04 ± 0.14 %ID/g
same,liver uptake,[3]; [4],0.67 ± 0.13 %ID/g
same,lung uptake,[3]; [4],0.39 ± 0.01 %ID/g
same,muscle uptake,[3]; [4],0.15 ± 0.02 %ID/g
same,pancreas uptake,[3]; [4],0.13 ± 0.06 %ID/g
same,spleen uptake,[3]; [4],0.21 ± 0.02 %ID/g
same,stomach uptake,[3]; [4],0.12 ± 0.10 %ID/g
same,testes uptake,[3]; [4],0.24 ± 0.05 %ID/g
same,tumor uptake,"[3]; 1 h after injection, unblocked",13.96 ± 5.20 %ID/g
same,tumor uptake,[3]; [4],0.41 ± 0.04 %ID/g
O=C(O)CC[C@H](NC(=O)N[C@@H](CCCCNC(=O)[C@H](Cc1ccc2ccccc2c1)NC(=O)[C@H]1CC[C@H](CNC(=O)Cn2cc(C[n+]3ccc([B-](F)(F)F)cc3)nn2)CC1)C(=O)O)C(=O)O [^18F-6],Ki,[1],1.9 ± 0.68 nM
same,LogD7.4,[2],most lipophilic compound of the series
same,logD at 2 min,[2],-2.28 ± 0.01
same,intestinal activity compared with ^18F-DCFPyL,[3]; 1 h after injection,significantly higher intestinal activity than ^18F-DCFPyL
same,T/B (tumor-to-blood ratio),"[3]; 1 h after injection, unblocked",19.80 ± 7.23
same,T/K (tumor-to-kidney ratio),"[3]; 1 h after injection, unblocked",0.14 ± 0.02
same,T/M (tumor-to-muscle ratio),"[3]; 1 h after injection, unblocked",72.20 ± 13.46
same,adrenal uptake,"[3]; 1 h after injection, unblocked",2.14 ± 0.61 %ID/g
same,blood uptake,"[3]; 1 h after injection, unblocked",0.68 ± 0.26 %ID/g
same,bone uptake,"[3]; 1 h after injection, unblocked",0.56 ± 0.14 %ID/g
same,brain uptake,"[3]; 1 h after injection, unblocked",0.03 ± 0.01 %ID/g
same,fat uptake,"[3]; 1 h after injection, unblocked",0.38 ± 0.14 %ID/g
same,heart uptake,"[3]; 1 h after injection, unblocked",0.22 ± 0.03 %ID/g
same,intestine uptake,"[3]; 1 h after injection, unblocked",23.05 ± 4.39 %ID/g
same,kidney uptake,"[3]; 1 h after injection, unblocked",83.22 ± 6.07 %ID/g
same,liver uptake,"[3]; 1 h after injection, unblocked",0.98 ± 0.22 %ID/g
same,lung uptake,"[3]; 1 h after injection, unblocked",1.05 ± 0.14 %ID/g
same,muscle uptake,"[3]; 1 h after injection, unblocked",0.17 ± 0.02 %ID/g
same,pancreas uptake,"[3]; 1 h after injection, unblocked",0.26 ± 0.06 %ID/g
same,spleen uptake,"[3]; 1 h after injection, unblocked",1.77 ± 0.70 %ID/g
same,stomach uptake,"[3]; 1 h after injection, unblocked",1.17 ± 1.35 %ID/g
same,testes uptake,"[3]; 1 h after injection, unblocked",0.33 ± 0.05 %ID/g
same,tumor uptake compared with ^18F-DCFPyL,[3]; 1 h after injection,No statistically significant differences
same,T/B (tumor-to-blood ratio),[3]; [4],0.72 ± 0.43
same,T/K (tumor-to-kidney ratio),[3]; [4],0.29 ± 0.07
same,T/M (tumor-to-muscle ratio),[3]; [4],3.78 ± 0.17
same,adrenal uptake,[3]; [4],0.20 ± 0.04 %ID/g
same,blood uptake,[3]; [4],1.64 ± 2.58 %ID/g
same,bone uptake,[3]; [4],0.57 ± 0.37 %ID/g
same,brain uptake,[3]; [4],0.03 ± 0.03 %ID/g
same,fat uptake,[3]; [4],0.06 ± 0.02 %ID/g
same,heart uptake,[3]; [4],0.17 ± 0.07 %ID/g
same,intestine uptake,[3]; [4],24.50 ± 4.86 %ID/g
same,kidney uptake,[3]; [4],1.30 ± 0.25 %ID/g
same,liver uptake,[3]; [4],0.87 ± 0.17 %ID/g
same,lung uptake,[3]; [4],0.43 ± 0.23 %ID/g
same,muscle uptake,[3]; [4],0.10 ± 0.02 %ID/g
same,pancreas uptake,[3]; [4],0.16 ± 0.14 %ID/g
same,spleen uptake,[3]; [4],0.18 ± 0.10 %ID/g
same,stomach uptake,[3]; [4],0.88 ± 0.41 %ID/g
same,testes uptake,[3]; [4],0.14 ± 0.04 %ID/g
same,tumor uptake,"[3]; 1 h after injection, unblocked, listed as 6",11.9 ± 2.3 %ID/g
same,tumor uptake,"[3]; 1 h after injection, unblocked, listed as [18F]6",11.94 ± 2.29 %ID/g
same,tumor uptake,[3]; [4],0.37 ± 0.10 %ID/g
